Where a SMILES comes first, the peptide text is derived from it. The star is where a group is joined. X1 = [N-]=[N+]=N[C@@H](CCCNCCN1CCNCC1)C(=O)*; X5 = [N-]=[N+]=N[C@@H](CCCNCCNCCN)C(=O)*; X2 = [N-]=[N+]=N[C@@H](CCCNCCCCN)C(=O)*; X4 = [N-]=[N+]=N[C@@H](CCCNCCCN)C(=O)*; X3 = [N-]=[N+]=N[C@@H](CCCNCCN)C(=O)*
Each molecule was assayed against Neurotensin receptor type 1 (Homo sapiens, UniProt P30989) (assay: Compound was evaluated for the binding affinity against human neurotensin receptor (hNTR)-1 expressed in CHO cells).
Sequence of Neurotensin receptor type 1 (P30989 whole entry): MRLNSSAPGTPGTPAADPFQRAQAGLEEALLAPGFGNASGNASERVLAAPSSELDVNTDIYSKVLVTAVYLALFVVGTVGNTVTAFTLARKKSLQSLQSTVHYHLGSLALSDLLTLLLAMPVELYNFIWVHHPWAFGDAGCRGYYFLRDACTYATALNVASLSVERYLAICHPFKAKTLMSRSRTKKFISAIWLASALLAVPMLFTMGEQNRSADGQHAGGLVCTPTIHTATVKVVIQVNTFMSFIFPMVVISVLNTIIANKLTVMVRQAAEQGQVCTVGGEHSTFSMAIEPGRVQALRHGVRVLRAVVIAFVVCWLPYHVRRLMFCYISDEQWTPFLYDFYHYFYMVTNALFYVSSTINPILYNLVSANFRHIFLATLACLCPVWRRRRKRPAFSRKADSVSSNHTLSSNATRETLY
Format: cell-based
An IC50 of 8.8 nM was found for `CC[C@H](C)[C@H](NC(=O)[C@H](Cc1ccc(O)cc1)NC(=O)[C@@H]1CCCN1C(=O)[C@H](CCCNCCNCCN)N=[N+]=[N-])C(=O)N[C@@H](CC(C)C)C(=O)O` (X5-PYIL-OH) in this work.
An IC50 of 9.3 nM was found for `CC[C@H](C)[C@H](NC(=O)[C@H](Cc1ccc(O)cc1)NC(=O)[C@@H]1CCCN1C(=O)[C@H](CCCNCCCCN)N=[N+]=[N-])C(=O)N[C@@H](CC(C)C)C(=O)O` (X2-PYIL-OH) in this work.
An IC50 of 28 nM was found for `CC[C@H](C)[C@H](NC(=O)[C@H](Cc1ccc(O)cc1)NC(=O)[C@@H]1CCCN1C(=O)[C@H](CCCNCCN1CCNCC1)N=[N+]=[N-])C(=O)N[C@@H](CC(C)C)C(=O)O` (X1-PYIL-OH) in this work.
An IC50 of 19 nM was found for `CC[C@H](C)[C@H](NC(=O)[C@H](Cc1ccc(O)cc1)NC(=O)[C@@H]1CCCN1C(=O)[C@@H](N)CCCNC(=N)N)C(=O)N[C@@H](CC(C)C)C(=O)O` in this work.
An IC50 of 14.7 nM was found for `CC[C@H](C)[C@H](NC(=O)[C@H](Cc1ccc(O)cc1)NC(=O)[C@@H]1CCCN1C(=O)[C@H](CCCNCCN)N=[N+]=[N-])C(=O)N[C@@H](CC(C)C)C(=O)O` (X3-PYIL-OH) in this work.
An IC50 of 1.3 nM was found for `CC[C@H](C)[C@H](NC(=O)[C@H](Cc1ccc(O)cc1)NC(=O)[C@@H]1CCCN1C(=O)[C@H](CCCN)NC(=O)[C@@H](N)CCCN)C(=O)N[C@@H](CC(C)C)C(=O)O` in this work.
An IC50 of 3.9 nM was found for `CC[C@H](C)[C@H](NC(=O)[C@H](Cc1ccc(O)cc1)NC(=O)[C@@H]1CCCN1C(=O)[C@H](CCCNCCCN)N=[N+]=[N-])C(=O)N[C@@H](CC(C)C)C(=O)O` (X4-PYIL-OH) in this work.

— ChEMBL document CHEMBL1133047, “Synthesis of neurotensin(9-13) analogues exhibiting enhanced human neurotensin receptor binding affinities” (Bioorg Med Chem Lett, 2000)
